Measurements published in PMC5325712 (Journal of medicinal chemistry, 2017).
Blank lines part the entries; values can stand above or below the compound they belong to.

Columns and labels:
D3R [1] = conditions: read-out: D3R receptor binding affinities; cited from earlier work
D2R [2] = conditions: 6 compared to 5; cited from earlier work
D3R [3] = molecular target: T1, D3R (Homo sapiens, UniProt P35462); conditions: Table 1; ratio of binding Ki values D2R/D3R
D2R [4] = conditions: at concentrations over 50 μM; cited from earlier work
D2R long isoform = D2R long isoform (Homo sapiens, UniProt P14416); assay: β-arrestin recruitment assay; type: cell-based; conditions: dopamine curve-shift / inhibition of dopamine stimulation
D3R [5] = molecular target: T1, D3R; assay: β-arrestin recruitment assay; conditions: dopamine curve-shift assays, best fit by F-test

T1 sequence (P35462 whole entry): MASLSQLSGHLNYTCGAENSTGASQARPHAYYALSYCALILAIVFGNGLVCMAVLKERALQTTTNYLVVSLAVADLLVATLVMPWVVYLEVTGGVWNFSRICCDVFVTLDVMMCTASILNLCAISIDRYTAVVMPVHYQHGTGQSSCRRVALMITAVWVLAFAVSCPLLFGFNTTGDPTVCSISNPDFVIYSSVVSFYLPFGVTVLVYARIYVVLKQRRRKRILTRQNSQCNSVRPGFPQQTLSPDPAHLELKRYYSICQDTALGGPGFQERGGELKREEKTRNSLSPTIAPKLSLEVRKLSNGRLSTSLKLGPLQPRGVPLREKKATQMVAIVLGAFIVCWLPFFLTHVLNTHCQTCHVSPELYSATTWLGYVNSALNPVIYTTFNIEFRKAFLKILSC
Chain of D2R long isoform (P14416 whole entry, canonical isoform): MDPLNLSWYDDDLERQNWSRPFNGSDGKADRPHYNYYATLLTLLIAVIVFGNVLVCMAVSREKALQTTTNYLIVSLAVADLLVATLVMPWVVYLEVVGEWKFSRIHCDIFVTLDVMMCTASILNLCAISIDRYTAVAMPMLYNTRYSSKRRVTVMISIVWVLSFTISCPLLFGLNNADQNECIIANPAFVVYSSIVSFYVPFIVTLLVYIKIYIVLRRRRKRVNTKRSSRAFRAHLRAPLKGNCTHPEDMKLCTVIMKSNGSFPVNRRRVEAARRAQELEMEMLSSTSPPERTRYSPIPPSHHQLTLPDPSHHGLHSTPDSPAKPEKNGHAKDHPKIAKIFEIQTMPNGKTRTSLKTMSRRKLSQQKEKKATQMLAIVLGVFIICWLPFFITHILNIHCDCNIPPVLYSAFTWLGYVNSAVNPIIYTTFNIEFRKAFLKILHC

SMILES: O=C(NC/C=C/CN1CCN(c2cccc(Cl)c2Cl)CC1)c1ccc(-c2ccccn2)cc1 [Compound 6]
Ki (D3R [1]): ~1 nM | lower affinity at D2R (D2R [2]): ~ 2 fold

SMILES: N#Cc1cccc(N2CCNCC2)c1 [Compound 8, 3-(Piperazin-1-yl)benzonitrile]
D2/D3 (D3R [3]): 7.5–9.1

SMILES: N#Cc1ccc2c(c1)CNCC2 [Compound 9b, 7-cyano-1,2,3,4-tetrahydroisoquinoline]
D2/D3 (D3R [3]): 7.5–9.1

SMILES: CC(C)NC(=O)c1cc2ccccc2[nH]1 [Compound 13b]
mode of action at the D2R (D2R [4]): allosteric antagonist of the D2R with modest negative cooperativity with dopamine

mechanism of antagonism at the D2R (D2R long isoform): competitive antagonist | mechanism of antagonism at the D3R (D3R [5]): competitive antagonist
SMILES: CCN1CCCC1CNC(=O)c1cc(S(N)(=O)=O)ccc1OC (stereo not shown) [sulpiride]
